Test system: MV-4-11 cells
Test: Gene expression microarray analysis (Affymetrix PrimeView) and GSEA
Type: cell-based, human
Parameters: RFU PODN (11730768_x_at) / Fold change /veh PODN (11730768_x_at) / RFU LINC00158 (11744669_a_at) / Fold change /veh LINC00158 (11744669_a_at) / RFU DUSP10 (11751237_a_at) / Fold change /veh DUSP10 (11751237_a_at) / RFU ID3 (11757404_x_at) / Fold change /veh ID3 (11757404_x_at) / RFU PLEKHG5 (11737974_s_at) / Fold change /veh PLEKHG5 (11737974_s_at) / RFU LRRC4B (11730491_at) / Fold change /veh LRRC4B (11730491_at) / RFU GIMAP4 (11747438_a_at) / Fold change /veh GIMAP4 (11747438_a_at) / RFU KRT8 (11758183_x_at) / Fold change /veh KRT8 (11758183_x_at) / RFU CNN1 (11734310_a_at) / Fold change /veh CNN1 (11734310_a_at) / RFU VPS37D (11726825_at) / Fold change /veh VPS37D (11726825_at) / RFU C10orf10 (11716522_x_at) / Fold change /veh C10orf10 (11716522_x_at) / RFU KIR2DL2 /// KIR2DL4 /// KIR2DL5A /// KIR2DL5B /// KIR2DS1 /// KIR2DS2 /// KIR2DS3 /// KIR2DS4 /// KIR3DL3 /// KIR3DL3 /// KIR3DS1 (11738374_at) / Fold change /veh KIR2DL2 /// KIR2DL4 /// KIR2DL5A /// KIR2DL5B /// KIR2DS1 /// KIR2DS2 /// KIR2DS3 /// KIR2DS4 /// KIR3DL3 /// KIR3DL3 /// KIR3DS1 (11738374_at) / RFU C1QL1 (11718748_at) / Fold change /veh C1QL1 (11718748_at) / RFU TMPRSS4 (11747572_a_at) / Fold change /veh TMPRSS4 (11747572_a_at) / RFU HAMP (11756126_x_at) / Fold change /veh HAMP (11756126_x_at) / RFU RNFT2 (11725882_a_at) / Fold change /veh RNFT2 (11725882_a_at) / RFU NR4A2 (11747474_a_at) / Fold change /veh NR4A2 (11747474_a_at) / RFU ABCC12 (11746883_a_at) / Fold change /veh ABCC12 (11746883_a_at) / RFU TMEM136 (11760407_x_at) / Fold change /veh TMEM136 (11760407_x_at) / RFU CLDN22 /// WWC2 (11732394_at) / Fold change /veh CLDN22 /// WWC2 (11732394_at) / RFU HLA-DPB1 (11760878_x_at) / Fold change /veh HLA-DPB1 (11760878_x_at) / RFU SPINT1 (11716480_a_at) / Fold change /veh SPINT1 (11716480_a_at) / RFU GAP43 (11754022_s_at) / Fold change /veh GAP43 (11754022_s_at) / RFU A4GNT (11735810_at) / Fold change /veh A4GNT (11735810_at) / RFU PRB3 (11715151_x_at) / Fold change /veh PRB3 (11715151_x_at) / RFU TUBB4B (11761932_at) / Fold change /veh TUBB4B (11761932_at) / RFU CAPN14 (11732068_a_at) / Fold change /veh CAPN14 (11732068_a_at) / RFU TMCC2 (11721928_a_at) / Fold change /veh TMCC2 (11721928_a_at) / RFU IRGQ (11745062_a_at) / Fold change /veh IRGQ (11745062_a_at) / RFU FAM174B (11720279_a_at) / Fold change /veh FAM174B (11720279_a_at) / RFU TMPRSS4 (11748680_a_at) / Fold change /veh TMPRSS4 (11748680_a_at) / RFU FAM212B (11763350_a_at) / Fold change /veh FAM212B (11763350_a_at) / RFU PLEKHG5 (11743358_a_at) / Fold change /veh PLEKHG5 (11743358_a_at) / RFU ZSCAN30 (11745921_a_at) / Fold change /veh ZSCAN30 (11745921_a_at) / RFU CMKLR1 (11741424_a_at) / Fold change /veh CMKLR1 (11741424_a_at) / RFU LOC101060620 /// MAPK8IP1 (11723275_at) / Fold change /veh LOC101060620 /// MAPK8IP1 (11723275_at) / RFU SPTSSB (11747773_x_at) / Fold change /veh SPTSSB (11747773_x_at) / RFU PRSS12 (11739890_at) / Fold change /veh PRSS12 (11739890_at) / RFU BIN1 (11741810_x_at) / Fold change /veh BIN1 (11741810_x_at) / RFU WNT11 (11732464_a_at) / Fold change /veh WNT11 (11732464_a_at) / RFU C10orf10 (11716521_a_at) / Fold change /veh C10orf10 (11716521_a_at) / RFU C5orf56 (11738089_at) / Fold change /veh C5orf56 (11738089_at) / RFU CYB561 (11721691_x_at) / Fold change /veh CYB561 (11721691_x_at) / RFU ANKRD19P (11752326_a_at) / Fold change /veh ANKRD19P (11752326_a_at) / RFU OR2T12 /// OR2T33 /// OR2T8 (11738714_s_at) / Fold change /veh OR2T12 /// OR2T33 /// OR2T8 (11738714_s_at) / RFU VCAN (11748164_a_at) / Fold change /veh VCAN (11748164_a_at) / RFU JSRP1 (11732532_at) / Fold change /veh JSRP1 (11732532_at) / RFU KRTAP10-11 (11738290_x_at) / Fold change /veh KRTAP10-11 (11738290_x_at) / RFU MYO3A (11730013_a_at) / Fold change /veh MYO3A (11730013_a_at) / RFU EBF3 (11725865_a_at) / Fold change /veh EBF3 (11725865_a_at) / RFU CAMK2N1 (11719241_x_at) / Fold change /veh CAMK2N1 (11719241_x_at) / RFU C5orf56 (11738088_a_at) / Fold change /veh C5orf56 (11738088_a_at) / RFU OLFML3 (11715873_a_at) / Fold change /veh OLFML3 (11715873_a_at) / RFU LOC100653217 /// NTM (11731650_a_at) / Fold change /veh LOC100653217 /// NTM (11731650_a_at) / RFU MAPK11 (11762145_a_at) / Fold change /veh MAPK11 (11762145_a_at) / RFU FIZ1 (11724087_x_at) / Fold change /veh FIZ1 (11724087_x_at) / RFU OASL (11726364_x_at) / Fold change /veh OASL (11726364_x_at) / RFU SOX15 (11748057_x_at) / Fold change /veh SOX15 (11748057_x_at) / RFU CD79A (11719716_a_at) / Fold change /veh CD79A (11719716_a_at) / RFU HIST1H1D (11736915_at) / Fold change /veh HIST1H1D (11736915_at) / RFU CASKIN2 (11723855_a_at) / Fold change /veh CASKIN2 (11723855_a_at) / RFU LOC730098 (11760151_x_at) / Fold change /veh LOC730098 (11760151_x_at) / RFU OR4N2 (11742367_at) / Fold change /veh OR4N2 (11742367_at) / RFU PRRT2 (11749266_a_at) / Fold change /veh PRRT2 (11749266_a_at) / RFU SNX32 (11753110_a_at) / Fold change /veh SNX32 (11753110_a_at) / RFU CDHR5 (11726645_a_at) / Fold change /veh CDHR5 (11726645_a_at) / RFU RCAN1 (11760418_a_at) / Fold change /veh RCAN1 (11760418_a_at) / RFU FAM167A (11723789_a_at) / Fold change /veh FAM167A (11723789_a_at) / RFU FAM26E (11764081_at) / Fold change /veh FAM26E (11764081_at) / RFU ISYNA1 (11749810_s_at) / Fold change /veh ISYNA1 (11749810_s_at) / RFU ACY1 (11761880_at) / Fold change /veh ACY1 (11761880_at) / RFU 11764098_at / Fold change /veh 11764098_at / RFU SAMD14 (11745864_x_at) / Fold change /veh SAMD14 (11745864_x_at) / RFU NPB (11741838_a_at) / Fold change /veh NPB (11741838_a_at) / RFU TMPRSS6 (11731388_a_at) / Fold change /veh TMPRSS6 (11731388_a_at) / RFU KRTAP10-2 (11738614_at) / Fold change /veh KRTAP10-2 (11738614_at) / RFU ARHGAP8 /// PRR5-ARHGAP8 (11727945_x_at) / Fold change /veh ARHGAP8 /// PRR5-ARHGAP8 (11727945_x_at) / RFU KRTAP5-7 /// NADSYN1 (11734609_at) / Fold change /veh KRTAP5-7 /// NADSYN1 (11734609_at) / RFU RASL12 (11751679_a_at) / Fold change /veh RASL12 (11751679_a_at) / RFU CDKN2B (11736163_a_at) / Fold change /veh CDKN2B (11736163_a_at) / RFU PRF1 (11729649_at) / Fold change /veh PRF1 (11729649_at) / RFU, ZNF638 /// ZNF638-IT1 / Fold change vs veh, ZNF638 /// ZNF638-IT1 / RFU, PANK3 / Fold change vs veh, PANK3 / RFU, SH3YL1 / Fold change vs veh, SH3YL1 / RFU, ZEB2 / Fold change vs veh, ZEB2 / RFU, NRIP1 / Fold change vs veh, NRIP1 / RFU, PTTG1IP / Fold change vs veh, PTTG1IP / RFU, CAPN2 / Fold change vs veh, CAPN2 / RFU, MED14 / Fold change vs veh, MED14 / RFU, SNORA58 / Fold change vs veh, SNORA58 / RFU, C1orf63 / Fold change vs veh, C1orf63 / RFU, LRRFIP1 / Fold change vs veh, LRRFIP1 / RFU, NDUFAF7 / Fold change vs veh, NDUFAF7 / RFU, SLC12A2 / Fold change vs veh, SLC12A2 / RFU, IBTK / Fold change vs veh, IBTK / RFU, ESF1 / Fold change vs veh, ESF1 / Fold change vs veh, TMEM50B / RFU, TAOK1 / Fold change vs veh, TAOK1 / RFU, ACBD3 / Fold change vs veh, ACBD3 / RFU, TMA16 / Fold change vs veh, TMA16 / RFU, RWDD3 / Fold change vs veh, RWDD3 / RFU, BCAT1 / Fold change vs veh, BCAT1 / RFU, EDEM3 / Fold change vs veh, EDEM3 / RFU, TMEM33 / Fold change vs veh, TMEM33 / RFU, WDR75 / Fold change vs veh, WDR75 / RFU, AHCTF1 / Fold change vs veh, AHCTF1 / RFU, TFRC / Fold change vs veh, TFRC / RFU, ZDHHC17 / Fold change vs veh, ZDHHC17 / RFU, NOM1 / Fold change vs veh, NOM1 / RFU, ARL8B / Fold change vs veh, ARL8B / RFU, ZBTB11 / Fold change vs veh, ZBTB11 / RFU, TAMM41 / Fold change vs veh, TAMM41 / RFU, KIAA1704 /// LOC100996395 / Fold change vs veh, KIAA1704 /// LOC100996395 / RFU, ING1 / Fold change vs veh, ING1 / RFU, TRMT61B / Fold change vs veh, TRMT61B / RFU, FUBP3 / Fold change vs veh, FUBP3 / RFU, TP53 / Fold change vs veh, TP53 / RFU, TNKS2 / Fold change vs veh, TNKS2 / RFU, ZFP14 / Fold change vs veh, ZFP14 / RFU, ACTR2 / Fold change vs veh, ACTR2 / RFU, PPP3R1 / Fold change vs veh, PPP3R1 / RFU, PIK3R1 / Fold change vs veh, PIK3R1 / RFU, HNRNPA1 / Fold change vs veh, HNRNPA1 / RFU, RNF170 / Fold change vs veh, RNF170 / RFU, ZNF28 / Fold change vs veh, ZNF28 / RFU, RNGTT / Fold change vs veh, RNGTT / RFU, OGT / Fold change vs veh, OGT / RFU, BRD1 / Fold change vs veh, BRD1 / RFU, MARS / Fold change vs veh, MARS / RFU, ZNF655 / Fold change vs veh, ZNF655 / RFU, FAHD1 / Fold change vs veh, FAHD1 / RFU, BDP1 / Fold change vs veh, BDP1 / RFU, LRRCC1 / Fold change vs veh, LRRCC1 / RFU, ARID1A / Fold change vs veh, ARID1A / RFU, ZNF146 / Fold change vs veh, ZNF146 / RFU, ZNF330 / Fold change vs veh, ZNF330 / RFU, GPN3 / Fold change vs veh, GPN3 / RFU, C9orf123 / Fold change vs veh, C9orf123 / RFU, N4BP2L2 / Fold change vs veh, N4BP2L2 / RFU, ARFIP1 / Fold change vs veh, ARFIP1 / RFU, FAM179B / Fold change vs veh, FAM179B / RFU, BCL10 / Fold change vs veh, BCL10 / RFU, UHRF1BP1L / Fold change vs veh, UHRF1BP1L / RFU, BET1 / Fold change vs veh, BET1 / RFU, CNOT2 / Fold change vs veh, CNOT2 / RFU, ZNF268 / Fold change vs veh, ZNF268 / Fold change vs veh, ZNF507 / RFU, DGCR2 / Fold change vs veh, DGCR2 / RFU, WDSUB1 / Fold change vs veh, WDSUB1 / Fold change vs veh, HSP90B1 /// MIR3652 / RFU, ADSS / Fold change vs veh, ADSS / RFU, GK / Fold change vs veh, GK / RFU, ZNF148 / Fold change vs veh, ZNF148 / RFU, TAF9 / Fold change vs veh, TAF9 / RFU, SLC1A5 / Fold change vs veh, SLC1A5 / RFU, SLMO2 / Fold change vs veh, SLMO2 / RFU, ABCC4 / Fold change vs veh, ABCC4 / RFU, LOC101060439 /// RAP1B / Fold change vs veh, LOC101060439 /// RAP1B / RFU, RFX7 / Fold change vs veh, RFX7 / RFU, GTPBP10 / Fold change vs veh, GTPBP10 / RFU, CNEP1R1 / Fold change vs veh, CNEP1R1 / RFU, BIVM-ERCC5 /// ERCC5 / Fold change vs veh, BIVM-ERCC5 /// ERCC5 / RFU, ILF3 / Fold change vs veh, ILF3 / RFU 11762660_at / Fold change /veh 11762660_at / RFU VCAN (11757783_s_at) / Fold change /veh VCAN (11757783_s_at) / RFU DDX43 (11728927_at) / Fold change /veh DDX43 (11728927_at) / RFU KRT8 (11758188_x_at) / Fold change /veh KRT8 (11758188_x_at) / RFU NKD1 (11759106_at) / Fold change /veh NKD1 (11759106_at) / RFU SRD5A1 (11742802_a_at) / Fold change /veh SRD5A1 (11742802_a_at) / RFU TPSAB1 /// TPSB2 (11721975_s_at) / Fold change /veh TPSAB1 /// TPSB2 (11721975_s_at) / RFU GSTM3 (11746129_a_at) / Fold change /veh GSTM3 (11746129_a_at) / RFU IL23R (11737362_x_at) / Fold change /veh IL23R (11737362_x_at) / RFU TMEM51 (11727254_a_at) / Fold change /veh TMEM51 (11727254_a_at) / RFU PIWIL2 (11732686_x_at) / Fold change /veh PIWIL2 (11732686_x_at) / RFU ORM1 (11744905_x_at) / Fold change /veh ORM1 (11744905_x_at) / RFU CCDC152 (11743942_at) / Fold change /veh CCDC152 (11743942_at) / RFU ECM1 (11717891_a_at) / Fold change /veh ECM1 (11717891_a_at) / RFU IL23R (11748794_a_at) / Fold change /veh IL23R (11748794_a_at) / RFU TNFAIP8L3 (11732012_x_at) / Fold change /veh TNFAIP8L3 (11732012_x_at) / RFU MBOAT4 (11741988_at) / Fold change /veh MBOAT4 (11741988_at) / RFU 11764193_at / Fold change /veh 11764193_at / RFU TMEM53 (11763286_at) / Fold change /veh TMEM53 (11763286_at) / RFU MAGEB2 (11727129_at) / Fold change /veh MAGEB2 (11727129_at) / RFU TMEM200A (11744735_a_at) / Fold change /veh TMEM200A (11744735_a_at) / RFU CCDC152 (11751479_a_at) / Fold change /veh CCDC152 (11751479_a_at) / RFU FAM211A (11726209_a_at) / Fold change /veh FAM211A (11726209_a_at) / RFU RGS16 (11746705_a_at) / Fold change /veh RGS16 (11746705_a_at) / RFU VCAN (11755009_s_at) / Fold change /veh VCAN (11755009_s_at) / RFU RHOB (11743442_s_at) / Fold change /veh RHOB (11743442_s_at) / RFU RGS16 (11720943_a_at) / Fold change /veh RGS16 (11720943_a_at) / RFU RGS16 (11720944_at) / Fold change /veh RGS16 (11720944_at) / RFU, VPS4B / Fold change vs veh, VPS4B / RFU, CREB1 / Fold change vs veh, CREB1 / RFU, DNAJC13 / Fold change vs veh, DNAJC13 / RFU, GNAQ / Fold change vs veh, GNAQ / RFU, CDK5R1 / Fold change vs veh, CDK5R1 / RFU, ZRANB3 / Fold change vs veh, ZRANB3 / RFU, CUL4A / Fold change vs veh, CUL4A / RFU, CCNY / Fold change vs veh, CCNY / RFU, UFL1 / Fold change vs veh, UFL1 / RFU, COG3 / Fold change vs veh, COG3 / RFU, DIAPH2 / Fold change vs veh, DIAPH2 / RFU, SKA2 / Fold change vs veh, SKA2 / RFU, AFF3 / Fold change vs veh, AFF3 / RFU, LMF1 / Fold change vs veh, LMF1 / RFU, IPO11 / Fold change vs veh, IPO11 / RFU, DFFB / Fold change vs veh, DFFB / RFU, FOXP1 / Fold change vs veh, FOXP1 / RFU, CARD8 / Fold change vs veh, CARD8 / RFU, STRN3 / Fold change vs veh, STRN3 / RFU, ADK / Fold change vs veh, ADK / RFU, RASSF2 / Fold change vs veh, RASSF2 / RFU, WIPF1 / Fold change vs veh, WIPF1 / RFU, LARP1B / Fold change vs veh, LARP1B / RFU, RASA1 / Fold change vs veh, RASA1 / RFU, RB1 / Fold change vs veh, RB1 / RFU, PPFIA1 / Fold change vs veh, PPFIA1 / RFU, MAT2A / Fold change vs veh, MAT2A / RFU, CCT5 / Fold change vs veh, CCT5 / RFU, WDR92 / Fold change vs veh, WDR92 / RFU, CUX1 / Fold change vs veh, CUX1 / RFU, TTC7A / Fold change vs veh, TTC7A / RFU, TMEM135 / Fold change vs veh, TMEM135 / RFU, DEPTOR / Fold change vs veh, DEPTOR / RFU, CPM / Fold change vs veh, CPM / RFU, DNAJB6 / Fold change vs veh, DNAJB6 / RFU, CACNA2D3 / Fold change vs veh, CACNA2D3 / RFU, DTX4 / Fold change vs veh, DTX4 / RFU, TFCP2 / Fold change vs veh, TFCP2 / RFU, GMCL1 /// GMCL1P1 / Fold change vs veh, GMCL1 /// GMCL1P1 / RFU, AEBP2 / Fold change vs veh, AEBP2 / RFU, SNHG1 /// SNORD22 /// SNORD25 /// SNORD26 /// SNORD27 /// SNORD28 /// SNORD29 /// SNORD31 / Fold change vs veh, SNHG1 /// SNORD22 /// SNORD25 /// SNORD26 /// SNORD27 /// SNORD28 /// SNORD29 /// SNORD31 / Fold change (Aza/veh), C12orf56 (ProbeSet 11735607_a_at) / Fold change (ACY-1035/veh), C12orf56 (ProbeSet 11735607_a_at) / Fold change (Aza/veh), FGFR1OP (ProbeSet 11751329_s_at) / Fold change (ACY-1035/veh), FGFR1OP (ProbeSet 11751329_s_at) / Fold change (Aza/veh), VPS36 (ProbeSet 11739960_a_at) / Fold change (ACY-1035/veh), VPS36 (ProbeSet 11739960_a_at) / RFU SYPL1 (11715823_x_at) / Fold change /veh SYPL1 (11715823_x_at) / RFU IGFBP7 (11715501_s_at) / Fold change /veh IGFBP7 (11715501_s_at) / RFU REEP3 (11722064_at) / Fold change /veh REEP3 (11722064_at) / RFU IGLL1 (11728026_x_at) / Fold change /veh IGLL1 (11728026_x_at): dose or concentration left out as unconfirmed
Details: ProbeSet 11739696_s_at; LIST D

Nc1ncn([C@@H]2O[C@H](CO)[C@@H](O)[C@H]2O)c(=O)n1 [azacitidine]
RFU, AFF3: 345.70 RFU
